± gives the standard deviation of the averaged measurements. One block for each compound: values may come before it.
Experiment: TIMS collisional cross section (CCS, N2) of the lipid ion; higher = larger ion cross section
Details: ionization mode: negative, one isomer drawn
Method: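 Lipid extracts of human plasma (NIST SRM 1950), mouse liver or HeLa cells were separated by nanoflow C18 LC (30 min gradient) and analysed by TIMS-PASEF on a timsTOF Pro. Ion mobility was calibrated with the Agilent tuning mix (negative mode ions) and converted to collisional cross sections (Mason–Schamp, N2).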

[1] = sample type: Mouse Liver, ion (formula + adduct): [C46H86NO8P+HCOO] 1-
[2] = sample type: Human plasma, ion (formula + adduct): [C46H84NO8P+HCOO] 1-
[3] = sample type: Human plasma, ion (formula + adduct): [C46H82NO8P+HCOO] 1-
[4] = sample type: Mouse Liver, ion (formula + adduct): [C48H88NO8P+HCOO] 1-
[5] = sample type: Human plasma, ion (formula + adduct): [C48H84NO8P+HCOO] 1-
[6] = sample type: Mouse Liver, ion (formula + adduct): [C48H84NO8P+HCOO] 1-
[7] = sample type: Mouse Liver, ion (formula + adduct): [C44H80NO8P+HCOO] 1-
[8] = sample type: Mouse Liver, ion (formula + adduct): [C46H78NO8P-CH3] 1-
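Also: lipids from MTBE extraction, five replicate injections per sample, 100 ms TIMS ramp spanning 0.6–1.95 Vs/cm², lipid identity assigned from PASEF MS/MS spectra.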

TIMS collisional cross section (sample type: Human plasma, ion (formula + adduct): [C44H84NO8P+HCOO] 1-): 296.5 ± 0.35 Å² | TIMS collisional cross section (sample type: Mouse Liver, ion (formula + adduct): [C44H84NO8P+HCOO] 1-): 295.9 ± 0.17 Å²
SMILES: CCCCC/C=C\C=C/CCCCCCCCC(=O)O[C@H](COC(=O)CCCCCCCCCCCCCCCCC)COP(=O)([O-])OCC[N+](C)(C)C [PC 18:0_18:2]

TIMS collisional cross section (sample type: Mouse Liver, ion (formula + adduct): [C46H90NO8P+HCOO] 1-): 302.3 Å²
SMILES: CCCCCCCC/C=C\CCCCCCCCCC(=O)O[C@H](COC(=O)CCCCCCCCCCCCCCCCC)COP(=O)([O-])OCC[N+](C)(C)C [PC 18:0_20:1]

TIMS collisional cross section [1]: 300.6 Å²
SMILES: CCCCC/C=C\C/C=C\CCCC/C=C\CCCC(=O)O[C@H](COC(=O)CCCCCCCCCCCCCCCCC)COP(=O)([O-])OCC[N+](C)(C)C [PC 18:0_20:3@]

TIMS collisional cross section (sample type: Human plasma, ion (formula + adduct): [C46H86NO8P+HCOO] 1-): 300.6 Å² | TIMS collisional cross section [1]: 300 Å²
SMILES: CCCCC/C=C\C/C=C\CCCC/C=C\CCCC(=O)O[C@H](COC(=O)CCCCCCCCCCCCCCCCC)COP(=O)([O-])OCC[N+](C)(C)C [PC 18:0_20:3]

SMILES: CCCCC/C=C\C/C=C\C/C=C\C/C=C\CCCC(=O)O[C@H](COC(=O)CCCCCCCCCCCCCCCCC)COP(=O)([O-])OCC[N+](C)(C)C [PC 18:0_20:4]
TIMS collisional cross section [2]: 299.5 Å² | TIMS collisional cross section (sample type: Mouse Liver, ion (formula + adduct): [C46H84NO8P+HCOO] 1-): 299.5 ± 0.85 Å² | TIMS collisional cross section (sample type: Mouse Liver, ion (formula + adduct): [C46H84NO8P-CH3] 1-): 282.4 Å²

TIMS collisional cross section [3]: 299.5 Å²
SMILES: CC/C=C\C/C=C\C/C=C\C/C=C\C/C=C\CCCC(=O)O[C@H](COC(=O)CCCCCCCCCCCCCCCCC)COP(=O)([O-])OCC[N+](C)(C)C [PC 18:0_20:5]

TIMS collisional cross section (sample type: Human plasma, ion (formula + adduct): [C48H88NO8P+HCOO] 1-): 305.1 Å² | TIMS collisional cross section [4]: 304.5 Å²
SMILES: CCCCC/C=C\C/C=C\C/C=C\C/C=C\CCCCCC(=O)O[C@H](COC(=O)CCCCCCCCCCCCCCCCC)COP(=O)([O-])OCC[N+](C)(C)C [PC 18:0_22:4]

TIMS collisional cross section [5]: 303.4 Å² | TIMS collisional cross section [6]: 302.2 Å²
SMILES: CC/C=C\C/C=C\C/C=C\C/C=C\C/C=C\C/C=C\CCC(=O)O[C@H](COC(=O)CCCCCCCCCCCCCCCCC)COP(=O)([O-])OCC[N+](C)(C)C [PC 18:0_22:6]

TIMS collisional cross section [7]: 292.7 Å²
SMILES: CC/C=C\C/C=C\C/C=C\CCCCCCCC(=O)O[C@H](COC(=O)CCCCCCC/C=C\CCCCCCCC)COP(=O)([O-])OCC[N+](C)(C)C [PC 18:1@_18:3]

TIMS collisional cross section [3]: 298.3 Å²
SMILES: CCCCC/C=C\C/C=C\C/C=C\C/C=C\CCCC(=O)O[C@H](COC(=O)CCCCCCC/C=C\CCCCCCCC)COP(=O)([O-])OCC[N+](C)(C)C [PC 18:1@_20:4]

TIMS collisional cross section (sample type: Mouse Liver, ion (formula + adduct): [C45H88NO8P+HCOO] 1-): 299.5 Å²
SMILES: CCCCCCCC/C=C\CCCCCCCC(=O)OC[C@H](COP(=O)([O-])OCC[N+](C)(C)C)OC(=O)CCCCCCCCCCCCCCCCCC [PC 18:1_19:0]

TIMS collisional cross section [3]: 298.3 Å² | TIMS collisional cross section (sample type: Mouse Liver, ion (formula + adduct): [C46H82NO8P+HCOO] 1-): 297.7 Å²
SMILES: CCCCC/C=C\C/C=C\C/C=C\C/C=C\CCCC(=O)O[C@H](COC(=O)CCCCCCC/C=C\CCCCCCCC)COP(=O)([O-])OCC[N+](C)(C)C [PC 18:1_20:4]

TIMS collisional cross section [5]: 302.8 Å² | TIMS collisional cross section [6]: 302.2 Å²
SMILES: CC/C=C\C/C=C\C/C=C\C/C=C\C/C=C\CCCCCC(=O)O[C@H](COC(=O)CCCCCCCCC/C=C\CCCCCC)COP(=O)([O-])OCC[N+](C)(C)C [PC 18:1_22:5]

TIMS collisional cross section [6]: 301.7 Å²
SMILES: CCCCC/C=C\C/C=C\C/C=C\C/C=C\CCCCCC(=O)O[C@H](COC(=O)CCCCCCC/C=C\C/C=C\CCCCC)COP(=O)([O-])OCC[N+](C)(C)C [PC 18:2@_22:4]

TIMS collisional cross section (sample type: Mouse Liver, ion (formula + adduct): [C43H78NO8P+HCOO] 1-): 289.3 Å²
SMILES: CCCCC/C=C/C=C\CCCCCCCC(=O)O[C@H](COC(=O)CCCCCCC/C=C\C/C=C/CCCCC)COP(=O)([O-])OCC[N+](C)(C)C [PC 18:2_17:2]

TIMS collisional cross section (sample type: Human plasma, ion (formula + adduct): [C44H80NO8P+HCOO] 1-): 293.4 ± 0.35 Å² | TIMS collisional cross section [7]: 292.7 Å²
SMILES: CCCCCCCCCCCCC/C=C/C=C/C(=O)OC[C@H](COP(=O)([O-])OCC[N+](C)(C)C)OC(=O)/C=C/C=C/CCCCCCCCCCCCC [PC 18:2_18:2]

TIMS collisional cross section (sample type: Mouse Liver, ion (formula + adduct): [C45H86NO8P+HCOO] 1-): 299 Å²
SMILES: CCCCC/C=C\C/C=C\CCCCCCCC(=O)OC[C@H](COP(=O)([O-])OCC[N+](C)(C)C)OC(=O)CCCCCCCCCCCCCCCCCC [PC 18:2_19:0]

TIMS collisional cross section [2]: 299.5 Å²
SMILES: CCCCC/C=C\C/C=C\CCCCCCCCCC(=O)O[C@H](COC(=O)CCCCCCC/C=C\C/C=C\CCCCC)COP(=O)([O-])OCC[N+](C)(C)C [PC 18:2_20:2]

TIMS collisional cross section [3]: 299.2 Å²
SMILES: CCCCC/C=C\C/C=C\C/C=C\CCCCCCC(=O)O[C@H](COC(=O)CCCCCCC/C=C\C/C=C\CCCCC)COP(=O)([O-])OCC[N+](C)(C)C [PC 18:2_20:3]

TIMS collisional cross section (sample type: Human plasma, ion (formula + adduct): [C46H80NO8P+HCOO] 1-): 296.8 ± 0.92 Å² | TIMS collisional cross section (sample type: Mouse Liver, ion (formula + adduct): [C46H80NO8P+HCOO] 1-): 295.7 ± 0.42 Å²
SMILES: CCCCC/C=C\C/C=C\C/C=C\C/C=C\CCCC(=O)O[C@H](COC(=O)CCCCCCC/C=C\C/C=C\CCCCC)COP(=O)([O-])OCC[N+](C)(C)C [PC 18:2_20:4]

TIMS collisional cross section [8]: 276.6 Å²
SMILES: CC/C=C\C/C=C\C/C=C\C/C=C\C/C=C\CCCC(=O)O[C@H](COC(=O)CCCCCCC/C=C\C/C=C\CCCCC)COP(=O)([O-])OCC[N+](C)(C)C [PC 18:2_20:5@]

TIMS collisional cross section (sample type: Human plasma, ion (formula + adduct): [C46H78NO8P+HCOO] 1-): 294.9 Å²
SMILES: CC/C=C\C/C=C\C/C=C\C/C=C\C/C=C\CCCC(=O)O[C@H](COC(=O)CCCCCCC/C=C\C/C=C\CCCCC)COP(=O)([O-])OCC[N+](C)(C)C [PC 18:2_20:5]

TIMS collisional cross section (sample type: Human plasma, ion (formula + adduct): [C48H84NO8P-CH3] 1-): 303.8 Å²
SMILES: CCCCC/C=C\C/C=C\C/C=C\C/C=C\CCCCCC(=O)O[C@H](COC(=O)CCCCCCC/C=C\C/C=C\CCCCC)COP(=O)([O-])OCC[N+](C)(C)C [PC 18:2_22:4@]

TIMS collisional cross section (sample type: Mouse Liver, ion (formula + adduct): [C48H82NO8P+HCOO] 1-): 299.9 Å²
SMILES: CCCCC/C=C\C/C=C\C/C=C\C/C=C\C/C=C\CCC(=O)O[C@H](COC(=O)CCCCCCC/C=C\C/C=C\CCCCC)COP(=O)([O-])OCC[N+](C)(C)C [PC 18:2_22:5]

TIMS collisional cross section (sample type: Human plasma, ion (formula + adduct): [C48H80NO8P+HCOO] 1-): 298.8 Å² | TIMS collisional cross section (sample type: Mouse Liver, ion (formula + adduct): [C48H80NO8P+HCOO] 1-): 298.8 Å²
SMILES: CC/C=C\C/C=C\C/C=C\C/C=C\C/C=C\C/C=C\CCC(=O)O[C@H](COC(=O)CCCCCCC/C=C\C/C=C\CCCCC)COP(=O)([O-])OCC[N+](C)(C)C [PC 18:2_22:6]

TIMS collisional cross section (sample type: Mouse Liver, ion (formula + adduct): [C46H78NO8P+HCOO] 1-): 296 Å² | TIMS collisional cross section [8]: 277.2 Å²
SMILES: CCCCC/C=C\C/C=C\C/C=C\C/C=C\CCCC(=O)O[C@H](COC(=O)CCCC/C=C\C/C=C\C/C=C\CCCCC)COP(=O)([O-])OCC[N+](C)(C)C [PC 18:3@_20:4]

TIMS collisional cross section (sample type: Mouse Liver, ion (formula + adduct): [C44H76NO8P+HCOO] 1-): 289.8 Å²
SMILES: CCCC/C=C/C=C/C=C/CCCCCCCC(=O)OC[C@H](COP(=O)([O-])OCC[N+](C)(C)C)OC(=O)CCCCCCC/C=C/C=C/C=C/CCCC [PC 18:3_18:3]

TIMS collisional cross section (sample type: Human plasma, ion (formula + adduct): [C46H80NO8P+AcO] 1-): 300.6 Å²
SMILES: CCCCC/C=C\C/C=C\C/C=C\CCCCCCC(=O)O[C@H](COC(=O)CCCC/C=C\C/C=C\C/C=C\CCCCC)COP(=O)([O-])OCC[N+](C)(C)C [PC 18:3_20:3]

TIMS collisional cross section (sample type: Mouse Liver, ion (formula + adduct): [C48H76NO8P-CH3] 1-): 280 Å²
SMILES: CC/C=C\C/C=C\C/C=C\C/C=C\C/C=C\C/C=C\CCC(=O)O[C@H](COC(=O)CCCC/C=C\C/C=C\C/C=C\C/C=C\CC)COP(=O)([O-])OCC[N+](C)(C)C [PC 18:4@_22:6]

TIMS collisional cross section (sample type: Human plasma, ion (formula + adduct): [C29H58NO8P-H] 1-): 244.4 Å²
SMILES: CCCCCCCCCCCCCCCCCCC(=O)OC[C@H](COP(=O)([O-])OCC[N+](C)(C)C)OC(C)=O [PC 19:0@_2:0]

TIMS collisional cross section (sample type: Mouse Liver, ion (formula + adduct): [C50H88NO8P+HCOO] 1-): 308.5 Å²
SMILES: CC/C=C\C/C=C\C/C=C\C/C=C\C/C=C\C/C=C\CCC(=O)O[C@H](COC(=O)CCCCCCCCCCCCCCCCCCC)COP(=O)([O-])OCC[N+](C)(C)C [PC 20:0@_22:6]

TIMS collisional cross section [4]: 304.5 Å²
SMILES: CCCCC/C=C\C/C=C\C/C=C\C/C=C\CCCC(=O)O[C@H](COC(=O)CCCCCCCCCCCCCCCCCCC)COP(=O)([O-])OCC[N+](C)(C)C [PC 20:0_20:4]

Reference: the supplement of paper PMC6965134
